What all share (experiment): NCI anticancer screen, dose series, 48 h
For assay [1], the system named is SR leukemia.
In assay [2] the test system is SW-620 colon.
In assay [3] the test system is COLO 205 colon.
Assay [4] has as its system MALME-3M melanoma.
In assay [5] the test system is OVCAR-4 ovarian.
Assay [6] deals with HL-60(TB) leukemia.
Assay [7] has as its system SN12C renal.
Assay [8] relates to UO-31 renal.
Assay [9] deals with CAKI-1 renal.
Assay [10] relates to TK-10 renal.

Each structure is given as a SMILES string.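 A five-concentration, 48-hour dose response in 96-well plates underlies each endpoint, interpolated linearly between surrounding concentrations. GI50: concentration for 50% inhibition of growth. At the TGI there is no net growth.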

Take `CO[C@H](C(=O)[C@@H](O)[C@@H](C)O)[C@@H]1Cc2cc3cc(O[C@H]4C[C@@H](O[C@H]5C[C@@H](O)[C@H](O)C(C)O5)[C@H](O)C(C)O4)c(C)c(O)c3c(O)c2C(=O)[C@H]1O[C@H]1C[C@@H](O[C@H]2C[C@@H](O[C@H]3C[C@](C)(O)C(=O)C(C)O3)[C@@H](O)C(C)O2)[C@H](O)C(C)O1` (some centres undefined): the GI50 in assay [1] is 0.0385 µM; in [2], 0.075 µM; in assay [3], 0.053 µM; in assay [4] it was 0.0388 µM; in assay [5], 0.124 µM; in assay [6], 0.592 µM. Besides, the GI50 in assay [7] was 0.093 µM; in assay [8], 0.159 µM; in [9] it was 0.924 µM; in assay [10], 0.21 µM. The TGI in assay [1] is above 33.2 µM; in [2] it was above 33.2 µM; in assay [3], 0.459 µM; in assay [4], 0.28 µM; in assay [5], 7.04 µM; in assay [6] it was above 21 µM. The TGI in [7] was above 33.2 µM; in [8] it was 1.6 µM; in assay [9], above 33.2 µM; in [10] it was above 11.8 µM.
Consider `Cc1ccc(C(=O)/C(=C/c2ccc([N+](=O)[O-])cc2)SCc2ccc(Cl)cc2)cc1`, for which the GI50 is 0.325 µM in assay [1]; 0.21 µM in assay [2]; 3.33 µM in assay [3]; 4.34 µM in assay [4]; 1.87 µM in assay [5]; 2.35 µM in assay [6]. The GI50 is 1.83 µM in assay [7], 1.2 µM in assay [8], 1.7 µM in [9] and 4.95 µM in assay [10]. In addition, the TGI in assay [1] was above 100 µM; in assay [2], 0.523 µM; in assay [3] it was 20.7 µM; in assay [4] it was 19.2 µM; in [5] it was 6.37 µM; in [6], 7.29 µM. Besides, the TGI in [7] was 4.68 µM; in [8], 2.66 µM; in assay [9], 4.9 µM; in assay [10], 30.7 µM.
Consider `CC/C=C\CCC/C=C1/C(=O)C=C[C@@H]1C/C=C\CCCC(=O)OC`, for which the GI50 is 2.73 µM in assay [1]; 4.16 µM in [2]; 4.1 µM in assay [3]; 4.76 µM in assay [4]; 4.27 µM in [5]; 2.79 µM in [6]. Further, the GI50 was 2.92 µM in assay [7], 2.04 µM in assay [8], 4.12 µM in assay [9] and 7.61 µM in assay [10]. Moreover, the TGI amounted to 9.22 µM in [1]; 18.7 µM in assay [2]; 12.5 µM in assay [3]; 16.6 µM in assay [4]; 16.4 µM in [5]; 7.51 µM in [6]. Also, the TGI is 8.18 µM in assay [7], 5.15 µM in [8], 13.5 µM in assay [9] and 20.1 µM in [10].
Consider `CCCCCCCCCCCCCCCCCC(CCCCCCCCCCCCCCCCC)OP(=O)(O)O`, for which the TGI in assay [1], in assay [2], in [3], in [4], in assay [5] and in assay [6] was above 100 µM each time. In addition, the TGI in assay [7], in assay [8], in [9] and in [10] was above 100 µM in each case.
For the compound `CCOc1ccc(NC(=O)C(=O)CC(=O)c2c[n+](=O)c3cc(C)c(C)cc3n2[O-])cc1`, the TGI in assay [1], in assay [2], in assay [3], in [4], in assay [5] and in assay [6] was above 100 µM each time. For the same compound, the TGI in [7], in assay [8], in [9] and in assay [10] was above 100 µM throughout.
For `COc1cc(-c2nn(-c3ccc(NC(=O)c4ccc(Cl)c(C(F)(F)F)c4)cc3)cc2-c2ccncc2)ccc1Cl`, the GI50 in assay [1] is 3.2 µM; in assay [2], 3.31 µM; in assay [3], 2.05 µM; in [4], 1.46 µM; in assay [5], 5.05 µM; in assay [6], 3.62 µM. The GI50 in [7] is 4.64 µM; in assay [8], 1.65 µM; in assay [9], 1.71 µM; in assay [10] it was 4.56 µM. The TGI in [1] is above 37.8 µM; in assay [2], above 100 µM; in assay [3], 4.37 µM; in [4], 5.05 µM; in assay [5], above 100 µM; in [6] it was above 57.3 µM. In addition, the TGI in assay [7] was above 100 µM; in [8] it was 5.46 µM; in [9], 7.29 µM; in assay [10], above 100 µM.
For `Cc1cc(I)cc(CN(C)CCCCN2CCCCC2)c1O`, the GI50 is 4.6 µM in [1]; 13.3 µM in assay [2]; 9.87 µM in assay [3]; 12.7 µM in assay [4]; 28.3 µM in assay [5]; 10.9 µM in [6]. For the same compound, the GI50 was 35.5 µM in assay [7], 14.2 µM in [8], 13.6 µM in assay [9] and 15.4 µM in [10]. In addition, the TGI in [1] was 17.9 µM; in assay [2], 27.5 µM; in [3], 24.9 µM; in [4], 28 µM; in assay [5], above 100 µM; in [6], 26.3 µM. Besides, the TGI in [7] was above 100 µM; in [8] it was 36.6 µM; in assay [9], 29.5 µM; in assay [10], 31.1 µM.
As for `Nc1ccccc1SC(C[N+](=O)[O-])c1ccc2c(c1)OCO2` (centres undefined), the TGI in assay [1] turned out to be 4.82 µM; in assay [2], 7.74 µM; in assay [3], 13.7 µM; in [4], 29.8 µM; in [5], 23.8 µM; in assay [6], 4.6 µM. Further, the TGI in [7] came to 14.3 µM; in assay [8] it was 3.32 µM; in assay [9] it was 26.6 µM; in [10], 7.09 µM.
As for `Cc1nc2ccccc2c(N)c1-c1cc(C)c2c(C)nc3ccccc3c2n1`, the GI50 in [1] was 0.19 µM; in [2] it was 0.183 µM; in assay [3], 0.817 µM; in assay [4], 1.27 µM; in assay [5] it was 0.831 µM; in assay [6], 0.454 µM. For the same compound, the GI50 in assay [7] was 1.41 µM; in [8], 0.78 µM; in [9], 1.55 µM; in [10], 1.44 µM. The TGI in assay [1] was 2.59 µM; in [2] it was 0.435 µM; in [3], 2.25 µM; in assay [4] it was 2.59 µM; in assay [5], 2.4 µM; in assay [7], 2.9 µM. The results for the TGI in [8], in assay [9] and in assay [10] were 2.26 µM, 2.94 µM and 2.78 µM, respectively.
In the case of `CN(C)C(=N)c1ccccc1`, the TGI in assay [1], in assay [2], in assay [3], in assay [4], in assay [5] and in assay [6] was above 100 µM each time. In addition, the TGI in assay [7], in assay [8], in assay [9] and in [10] was above 100 µM each time.
Take `O=C(/C=C/C12c3ccccc3C(c3ccccc31)C1C(=O)NC(=O)C12)c1ccncc1` (centres undefined): the GI50 in [1] is 1.76 µM; in assay [2], 2.47 µM; in [3] it was 3.57 µM; in assay [4], 3.16 µM; in assay [5], 2.65 µM; in assay [6], 1.76 µM. Further, the GI50 in assay [7] is 2.55 µM; in [8], 1.48 µM; in assay [9] it was 2.58 µM; in assay [10], 2.61 µM. Moreover, the TGI was determined as 7.34 µM in [1]; 7.95 µM in assay [2]; 9.43 µM in assay [3]; 12.2 µM in assay [4]; 9.7 µM in assay [5]; 6.1 µM in assay [6]. Also, the TGI in assay [7] came out at 12 µM; in [8], 4.8 µM; in assay [9], 11.7 µM; in [10], 7.75 µM.
With `O=C1CC(c2ccc3c(c2)OCO3)Nc2ccccc21` (centres undefined), the GI50 in assay [1] was 4.56 µM; in assay [2] it was 6.61 µM; in [3] it was 16.5 µM; in assay [4], 14.5 µM; in assay [5], 12.2 µM; in [6], 3.16 µM. The GI50 in assay [7] was 6.28 µM; in assay [8] it was 5.9 µM; in assay [9], 5.31 µM; in assay [10], 25.7 µM. For the same compound, the TGI in [1] is above 100 µM; in assay [2], 23.1 µM; in assay [3], 37.2 µM; in assay [4], 30.2 µM; in assay [5] it was 56.7 µM; in assay [6], above 100 µM. The TGI was found to be 23 µM in assay [7], 19.4 µM in assay [8], 47.5 µM in [9] and 99.4 µM in [10].
`O=C1C2C(C(=O)N1OS(=O)(=O)c1ccccc1)N(Cc1ccccc1)C(=O)N2Cc1ccccc1` (centres undefined): the TGI in assay [1], in [2], in assay [3], in [4], in assay [5] and in [6] was above 100 µM each time. In addition, the TGI in assay [7], in assay [8], in assay [9] and in [10] was above 100 µM in each case.
With `O=CN/C=C/c1cc(O)ccc1O`, the TGI turned out to be 48.2 µM in [1]; 21.5 µM in assay [2]; 26.5 µM in assay [3]; 35.6 µM in [4]; 32.2 µM in assay [5]; 13.2 µM in assay [6]. Moreover, the TGI in assay [7] worked out at 31.3 µM; in assay [8], 46.3 µM; in assay [9] it was 25.8 µM; in [10], 31.6 µM.
Regarding `NC(Cc1c[nH]c2c(O)cccc12)C(=O)O` (centres undefined), the GI50 in [1], in [2], in assay [3], in assay [4], in assay [5] and in assay [6] was above 100 µM each time. The GI50 in assay [7], in assay [8], in assay [9] and in assay [10] was above 100 µM in each case. Moreover, the TGI in assay [1], in assay [2], in assay [3], in assay [4], in assay [5] and in [6] was above 100 µM in each case. The TGI in assay [7], in [8], in [9] and in [10] was above 100 µM throughout.
Take `COC1=CC(c2ccc[nH]2)=N/C1=C\c1[nH]c(C)c(C(=O)OC(C)C)c1C`: the GI50 in assay [1] is 0.0257 µM; in assay [2], 0.0336 µM; in assay [3], 0.0733 µM; in assay [4] it was 0.456 µM; in assay [5], 0.0531 µM; in assay [6], 0.0551 µM. In addition, the GI50 in assay [7] was 0.068 µM; in assay [8], 0.0494 µM; in assay [9], 0.0158 µM; in assay [10], 0.0541 µM. In addition, the TGI in [1] was 0.291 µM; in assay [2] it was 1.44 µM; in assay [3], 1.46 µM; in [4], 2.19 µM; in [5], 4.62 µM; in assay [6], 2.89 µM. The TGI is 2.01 µM in assay [7], 0.175 µM in assay [8], 0.236 µM in assay [9] and 2.49 µM in [10].
Consider `Cn1cnc([N+](=O)[O-])c1Sc1nnc(-c2cccnc2)n1C`, for which the TGI in assay [1] stood at 45.5 µM; in [2], 31.3 µM; in assay [3] it was 28.9 µM; in [4], 33.2 µM; in assay [5], 56.6 µM; in [6], 21.1 µM. In addition, the TGI stood at 60.5 µM in assay [7], 53.8 µM in assay [8], 42.7 µM in assay [9] and 32.8 µM in assay [10].
